Test results from patent US20260374766A1, “METHODS FOR TREATING CANCER” (Antares Therapeutics, Inc., priority 2022, published 2026).
Read-outs that look alike come from different tables or passages of the source.

Key:
[1] = target: T1, p53 Y220C mutant protein (amino acid residues 94-293) (Homo sapiens, UniProt P04637, Y220C); experiment: Surface Plasmon Resonance (SPR) assay, Kd_kinetic; type: binding; conditions: SPR, p53 Y220C, read-out: SPR P53 Y220C KD kinetic
T1 construct: p53 Y220C mutant protein (amino acid residues 94-293)
T1 sequence (P04637 94-293, stated change not applied): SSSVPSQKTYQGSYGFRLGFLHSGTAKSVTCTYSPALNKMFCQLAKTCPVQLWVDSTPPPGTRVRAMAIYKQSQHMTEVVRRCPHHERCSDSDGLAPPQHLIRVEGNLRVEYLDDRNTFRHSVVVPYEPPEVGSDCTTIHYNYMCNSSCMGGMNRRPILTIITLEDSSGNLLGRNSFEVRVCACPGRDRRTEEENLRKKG
Procedure: Surface Plasmon Resonance (SPR) Assay Protocol
SPR experiments were performed on a Biacore 8K instrument. […] The running buffer contained 50 mM Tris, pH 7.5, 100 mM NaCl, 1 mM DTT, 0.01% Brij35, 0.05% Tween-20 and 1% DMSO. The assay temperature was maintained at 16 or 20 °C and data were fit into the 1:1 binding model using the Biacore Insight Evaluation software.

[2] = target: p53 Y220C (Homo sapiens, UniProt P04637, Y220C); experiment: Luciferase Reporter Assay (Luc), p53 response element, NClH1299 cells with inducible p53 Y220C; type: cell-based; conditions: 6 hour; for AC50: read-out: Luc P53 Y220C AC50
Procedure: Luciferase Reporter Assay Protocol
The cells were then used for p53 reporter assay. 5,000 cells were seeded in each well of 384 plate and cultured in 0.5 ug/mL doxycycline (D3072; Sigma) containing medium for 24 hours before compound treatment. After 6 hour of compound treatment, equal volume of One-Glo reagent (E6110; Promega) was added to each well and the plate was incubated for 5 minutes with shaking at room temperature. The luciferase activity was immediately measured with PheraStar microplate reader.

[3] = test system: H1299 p53 Y220C; experiment: Cell Proliferation Assay (CellTiter-Glo, CTG), H1299 p53 Y220C (NClH1299-inducible p53 Y220C); type: cell-based; conditions: Homo sapiens, NCI-H1299, 120 h, NClH1299-inducible p53 Y220C cells, 5 days
Procedure: (§1) Inducible p53 Y220C and R273H constructs (Tet-One inducible expression system; Takara) were stably expressed in NClH1299 cells by lentiviral transduction. NUGC3, A549, BxPC3, T3M4, HuH7, HCC2935, MFE296, NClH1299, NClH1299-inducible p53 Y220C, and NClH1299-inducible p53 R273H cell lines were used for cell proliferation assay. 250-500 cells were seeded in each well of 384 plate and then compounds were dispensed into each well using Echo or Tecan. After 5 days of incubation, equal volume of CellTiter-Glo reagent (G7570; Promega) was added into each well and the plate was incubated at room temperature for 10 minutes with shaking. The luminescent signal was measured by PheraStar microplate reader and IC50 was calculated.

[4] = test system: H1299 p53 R273H; experiment: Cell Proliferation Assay (CellTiter-Glo, CTG), H1299 p53 R273H (NClH1299-inducible p53 R273H); type: cell-based; conditions: Homo sapiens, NCI-H1299, 120 h, CellTiter-Glo, 5 days
Procedure: as §1

[5] = test system: NUGC3 p53 Y220C; experiment: Cell Proliferation Assay (CellTiter-Glo, CTG), NUGC3 p53 Y220C; type: cell-based; conditions: Homo sapiens, NUGC-3, 120 h, NUGC3 cells, 5 days, CellTiter-Glo
Procedure: as §1

[6] = AC50, luciferase reporter, NClH1299 inducible p53 Y220C
[7] = Emax, luciferase reporter, NClH1299 inducible p53 Y220C
[8] = AC50, NClH1299 cells with inducible p53 Y220C
[9] = Emax, NClH1299 cells with inducible p53 Y220C, 10 uM tool compound as positive control
[10] = luciferase reporter, NClH1299 inducible p53 Y220C, 10 uM tool compound as positive control
[11] = luciferase reporter, NClH1299 inducible p53 Y220C

Row | SMILES | Kd [1] [µM] | AC50 [2, 6] [µM] | Emax [2, 7] [%] | IC50 ([3]; CellTiter-Glo) [µM] | AC50 [2, 8] [µM] | Emax [2, 9] [%] | further results
1 | [2H]C([2H])([2H])Oc1cc(S(C)(=O)=O)ccc1NCC#Cc1cc2c(N[C@@H]3CCN(C(F)(F)F)C[C@@H]3F)cccn2c1SC(F)(F)F [Example 412] | < 0.01 | < 0.75 | > 90 |  |  |  | 
2 | CNC(=O)c1ccc(O[C@H]2C[C@@H](O)C2)c(NCC#Cc2cc3c(N[C@@H]4CCN(C)C[C@@H]4F)cccn3c2SC(F)(F)F)c1 [Example 413, 3-{[3-(8-{[(3S,4R)-3-fluoro-1-methylpiperidin-4-yl]amino}-3-[(trifluoromethyl)sulfanyl]indolizin-2-yl)prop-2-yn-1-yl]amino}-N-methyl-4-[(1s,3s)-3-hydroxycyclobutoxy]benzamide] | < 0.01 | < 0.75 | > 90 | < 0.75 |  |  | 
3 | [2H]C([2H])([2H])Oc1cc(S(C)(=O)=O)ccc1NCC#Cc1cc2c(N[C@@H]3CCN(C)C[C@@H]3F)cccn2c1SC(F)(F)F [Example 485] | < 0.01 |  |  |  | < 0.75 | > 90 | 
4 | CNC(=O)c1ccc(NCC#Cc2nc3c(N[C@H]4C[C@H]5COC[C@H](N5)[C@H]4F)cccn3c2SC(F)(F)F)c(OC)c1 [Example 281] |  |  | 80 to 90 | 1.5 to 3 |  |  | 
5 | [2H]C([2H])([2H])Oc1cc(S(C)(=O)=O)ccc1NCC#Cc1nc2c(N[C@@H]3CCN(C)C[C@@H]3F)nccn2c1SC(F)(F)F [Example 490] | < 0.01 |  |  |  | < 0.75 | > 90 | 
6 | COc1cc(S(C)(=N)=O)ccc1NCC#Cc1cc2c(N[C@@H]3CCN(C)C[C@@H]3F)cccn2c1SC(F)(F)F (stereo partly drawn) [Example 374] | < 0.01 | < 0.75 | 80 to 90 | < 0.75 |  |  | 
7 | [2H]C([2H])([2H])Oc1cc(S(C)(=O)=O)ccc1NCC#Cc1nn2c(N[C@@H]3CCN(C)C[C@@H]3F)cccc2c1SC(F)(F)F [Example 461] | < 0.01 |  |  |  | < 0.75 | > 90 | 
8 | COc1ccc(C(=O)N(C)C)cc1NCC#Cc1nc2c(N[C@@H]3CCN(C)C[C@@H]3F)cccn2c1SC(F)(F)F [Example 143] |  |  |  |  |  |  | Kd ([1]; kinetic KD): < 0.01 µM; Emax [2, 10]: > 90%; AC50 [2, 11]: < 0.75 µM; IC50 ([4]; H1299 p53 R273H): 5 to 8 µM
9 | [2H]C([2H])([2H])Oc1cc(C(=O)NC)ccc1NCC#Cc1nn2c(N[C@@H]3CCN(C)C[C@@H]3F)cccc2c1SC(F)(F)F [Example 500] | < 0.01 |  |  |  | < 0.75 | > 90 | IC50 [3]: < 0.75 µM
10 | CNC(=O)c1ccc(NCC#Cc2nc3c(N[C@@H]4C[C@@H]5COC[C@@H](N5)[C@@H]4F)cccn3c2SC(F)(F)F)c(OC)c1 (relative stereo) [Example 329] |  |  | 80 to 90 | < 0.75 |  |  | 
11 | CNC(=O)c1ccc(NCC#Cc2nc3c(N[C@@H]4CCN(C)C[C@@H]4F)cccn3c2C(F)(F)C(F)(F)F)c(OC)c1 [Example 30, 4-{[3-(8-{[(3S,4R)-3-fluoro-1-methylpiperidin-4-yl]amino}-3-(1,1,2,2,2-pentafluoroethyl)imidazo[1,2-a]pyridin-2-yl)prop-2-yn-1-yl]amino}-3-methoxy-N-methylbenzamide] |  |  |  |  |  |  | Kd ([1]; kinetic KD): 0.01 to 0.1 µM; Emax [2, 10]: > 90%; AC50 [2, 11]: > 3 µM
12 | CNC(=O)c1cc(NCC#Cc2cc3c(N[C@@H]4CCN(C)C[C@@H]4F)cccn3c2SC(F)(F)F)c2ncnn2c1 [Example 494] | < 0.01 |  |  |  | < 0.75 | > 90 | IC50 [3]: < 0.75 µM
13 | [2H]C([2H])([2H])N1CC[C@@H](Nc2cccn3c(SC(F)(F)F)c(C#CCNc4ccc(S(C)(=O)=O)cc4OC)cc23)[C@@H](F)C1 [Example 501] |  |  |  |  |  | > 90 | IC50 [3]: < 0.75 µM
14 | CNC(=O)c1cnc(OC)c(NCC#Cc2nc3c(N[C@@H]4CCN(C)C[C@@H]4F)cccn3c2SC(F)(F)F)n1 [Example 157] |  |  |  |  |  |  | Kd ([1]; kinetic KD): < 0.01 µM; Emax [2, 10]: 80 to 90%; AC50 [2, 11]: < 0.75 µM; IC50 ([4]; H1299 p53 R273H): ≥ 10 µM
15 | CNC(=O)c1cc(NCC#Cc2cc3c(N[C@@H]4CCN(C)C[C@@H]4F)cccn3c2SC(F)(F)F)n2ncnc2c1 [Example 361] |  | > 3 | < 70 | > 3 |  |  | 
16 | CNC(=O)c1ccc(OCCN(C)C)c(NCC#Cc2nc3c(N[C@@H]4CCOC[C@@H]4F)cccn3c2SC(F)(F)F)c1 [Example 229] | < 0.01 | 0.75 to 1.5 | 70 to 80 | 0.75 to 1.5 |  |  | 
17 | C[C@H](O)CNC(=O)c1ccc(OC2COC2)c(NCC#Cc2cc3c(N[C@@H]4CCN(C)C[C@@H]4F)cccn3c2SC(F)(F)F)c1 [Example 400] | < 0.01 | < 0.75 | 80 to 90 | < 0.75 |  |  | 
18 | [2H]C([2H])([2H])Oc1ccc(C(=O)NC)cc1NCC#Cc1nc2c(N[C@@H]3CCN(C)C[C@@H]3F)cccn2c1SC(F)(F)F [Example 507] | < 0.01 |  |  |  | < 0.75 | > 90 | IC50 [3]: < 0.75 µM
19 | [2H]C([2H])([2H])Oc1cc(C(=O)NC)ccc1NCC#Cc1nc2c(N[C@@H]3CCN(C)C[C@@H]3F)cccn2c1SC(F)(F)F [Example 505, 4-{[3-(8-{[(3S,4R)-3-fluoro-1-methylpiperidin-4-yl]amino}-3-[(trifluoromethyl)sulfanyl]imidazo[1,2-a]pyridin-2-yl)prop-2-yn-1-yl]amino}-3-(2H3)methoxy-N-methylbenzamide] |  |  |  |  |  | > 90 | IC50 [3]: < 0.75 µM
20 | [2H]C([2H])([2H])Oc1cc(S(C)(=O)=O)ccc1NCC#Cc1nc2c(N[C@@H]3CCN(C)C[C@@H]3C)cccn2c1SC(F)(F)F [Example 454] | < 0.01 |  |  |  | < 0.75 | > 90 | 
21 | COc1cc2c(cc1NCC#Cc1nc3c(N[C@@H]4CCN(C)C[C@@H]4F)cccn3c1CC(F)(F)F)CNC2=O [Example 95, 5-{[3-(8-{[(3S,4R)-3-fluoro-1-methylpiperidin-4-yl]amino}-3-(2,2,2-trifluoroethyl)imidazo[1,2-a]pyridin-2-yl)prop-2-yn-1-yl]amino}-6-methoxy-2,3-dihydroisoindol-1-one] |  |  |  |  |  |  | Kd ([1]; kinetic KD): < 0.01 µM
22 | [2H]C(C)(O)CNC(=O)c1ccc(NCC#Cc2cc3c(N[C@@H]4CCN(C)C[C@@H]4F)cccn3c2SC(F)(F)F)c(OC)c1 (single isomer, unassigned) [Example 487, 4-{[3-(8-{[(3S,4R)-3-fluoro-1-methylpiperidin-4-yl]amino}-3-[(trifluoromethyl)sulfanyl]indolizin-2-yl)prop-2-yn-1-yl]amino}-N-[(2R*)-2-hydroxy(2-^2H)propyl]-3-methoxybenzamide] | < 0.01 |  |  |  | < 0.75 | > 90 | IC50 [3]: < 0.75 µM
23 | CNC(=O)c1ccc(NCC#Cc2cc3c(N[C@@H]4CCN(C)C[C@@H]4F)cccn3c2SC(F)(F)F)c(O[C@H]2C[C@H](O)C2)c1 [Example 398] | < 0.01 | < 0.75 | 80 to 90 |  |  |  | 
24 | CNC(=O)c1cc(NCC#Cc2nn3c(N[C@@H]4CCN(C)C[C@@H]4F)cccc3c2SC(F)(F)F)c(OC)cn1 [Example 271] | < 0.01 | < 0.75 | 80 to 90 | < 0.75 |  |  | 
25 | CNC(=O)c1ccc(OCC2(O)CC2)c(NCC#Cc2cc3c(N[C@@H]4CCN(C)C[C@@H]4F)cccn3c2SC(F)(F)F)c1 [Example 467] | < 0.01 |  |  |  | < 0.75 | > 90 | IC50 [3]: < 0.75 µM
26 | CNC(=O)c1ccc(NCC#Cc2nc3c(N[C@H]4C[C@H]5COC[C@H](N5)[C@H]4F)cccn3c2SC(F)(F)F)c(OC)c1 [Example 282] |  |  |  |  |  |  | IC50 [5]: < 0.75 µM; IC50 ([4]; NClH1299-inducible p53 R273H cells): ≥ 10 µM
27 | CNC(=O)c1ccc(NCC#Cc2cc3c(N[C@@H]4CCN(C)C[C@@H]4F)cccn3c2SC(F)(F)F)c(O[C@H]2C[C@@H](O)C2)c1 [Example 474] | < 0.01 |  |  |  | < 0.75 | > 90 | 
28 | COc1cc(C(=O)NCC2CN(C)C2)ccc1NCC#Cc1nc2c(N[C@@H]3CCOC[C@@H]3F)cccn2c1SC(F)(F)F [Example 227] | < 0.01 | > 3 | 70 to 80 | > 3 |  |  | 
